Assay results reported in patent US20190309053A1, “PROLONGATION OF SURVIVAL OF AN ALLOGRAFT BY INHIBITING COMPLEMENT ACTIVITY” (Alexion Pharmaceuticals, Inc., priority 2004, published 2019).

What was measured:
[1] = system: C3H heart allografts in presensitized BALB/c recipients; assay: Heart allograft survival in presensitized recipients (Examples 1-2); assay type: in vivo, mouse; settings: C3H heart in skin-presensitized BALB/c; mean±SD; CsA 15 mg/kg/day s.c., CyP 40 mg/kg/day i.v. day 0 and 1, anti-C5 mAb 40 mg/kg/day i.p.
From the text: Rejection was defined as complete necrosis of the skin grafts.
(§1) However, the inhibitory effect of functionally blocking terminal complement cascade at the C5 level in highly sensitized recipients is unknown.

[2] = system: C3H heart allografts in presensitized BALB/c recipients; assay: Graft histology (H&E), presensitized model (Examples 1-2); assay type: in vivo, mouse; settings: at rejection or POD100
From the text: (§2) Tissue samples were fixed in 10% buffered formaldehyde. Specimens were then embedded in paraffin, and sectioned for H&E staining. The microscopic sections were examined in a blinded fashion for severity of rejection by a pathologist. Criteria for graft rejection included the presence of vasculitis, thrombosis, hemorrhage and lymphocyte infiltration. These changes were scored as: 0, no change; 1, minimum change; 2, mild change; 3, moderate change; or 4, marked change.
as §1

[3] = system: heart allografts in presensitized mouse recipients; assay: Immunoperoxidase staining of heart allografts; assay type: in vivo; design: key to C3 immunoperoxidase staining grade / C5 immunoperoxidase staining grade / CD4 immunoperoxidase staining grade / CD8 immunoperoxidase staining grade / Mac-1 immunoperoxidase staining grade / IgG immunoperoxidase staining grade / IgM immunoperoxidase staining grade: 0, negative; 1+, equivocal; 2+, weak; 3+, moderate; 4+, intense
From the text: Four micrometer sections were cut from tissue samples embedded in Tissue-Tek O.C.T gel (Optimum Cutting Temperature, Skura Finetek, Torrance, Calif.) mounted on gelatin-coated glass microscope slides and stained by a standard indirect avidin-biotin immunoperoxidase staining method using an Elite Vectastain ABC kit (Vector Laboratories Inc., Burlingame, Calif.). Specimens were stained for CD4^+ and CD8^+ cells with biotin-conjugated rat anti-mouse CD4 mAb (clone YTS 191.1.2, Cedarlane Laboratories Ltd., Hornby, Ontario, Canada) and biotin-conjugated rat anti-mouse CD8 mAb (clone 53-6.7, Pharmingen, Franklin Lakes, N.J.), respectively. Intragraft monocyte/macrophage infiltration was detected by staining with biotin-conjugated rat anti-mouse Mac-1 mAb (Cedarlane Laboratories Ltd., Hornby, Ontario, Canada). Mouse IgG and IgM deposition in grafts was detected using biotin-conjugated goat anti-mouse-IgG and goat anti-mouse-IgM (Cedarlane). For identification of complement deposition, sections were serially incubated with goat anti-C3 or anti-C5 polyclonal Abs (Quidel, San Diego, Calif.), biotinylated rabbit anti-goat IgG (Vector Laboratories), and HRP-conjugated-streptavidin (Zymed Laboratories, South San Francisco, Calif.). Slides were washed with phosphate-buffered saline between steps, and examined under light microscopy. Negative controls were performed by omitting the primary antibodies. The immunostaining was scored in five high-power fields of each section, and five independent experiments were performed. The sections of immunoperoxidase staining were graded from 0 to 4+ according to the staining intensity: 0, negative; 1+, equivocal; 2+, weak staining; 3+, moderate staining; and 4+, very intensive staining.

[4] = system: terminal complement activity; assay: Complement hemolytic assay of recipient sera; assay type: in vivo, mouse; settings: presensitized heart recipients, POD3
Description: The purified anti-C5 mAb was serially diluted twofold (175-0.1 μg/ml) in GVB^2+ buffer (gelatin Veronal-buffered saline: 0.1% gelatin, 141 mM NaCl, 0.5 mM MgCl2, 0.15 mM CaCl2), and 1.8 mM sodium barbital) and added in triplicate (50 μl/well) to a 96-well plate. BALB/c mouse serum was diluted to 40% v/v with GVB^2+ buffer and added […] to the rows of the same 96-well plate such that the final concentration of BALB/c mouse serum in each well was 20%. The plate was then incubated at room temperature for approximately 30 min while chicken erythrocytes were prepared. Chicken erythrocytes were washed 5×1 ml with GVB^2+ buffer and resuspended to a final concentration of 5×10^7/ml in GVB^2+. Four milliliters of the chicken erythrocytes were sensitized by adding anti-chicken RBC polyclonal antibody (Intercell Technologies, Hopewell, N.J., 0.1% v/v) and the cells were incubated at 4° C. for 15 min with frequent vortexing. The cells were then washed 2×1 ml with GVB^2+ and resuspended to a final volume of 2.4 ml in GVB^2+. […] The plate was read at OD 415 nm using a microplate reader and the percentage of hemolysis was determined using this formula: […]
In the current study, terminal complement activity was measured by assessing the ability of recipient mouse sera to lyse antibody presensitized chicken erythrocytes and was compared at the same time-point (POD3).

[5] = system: anti-donor specific IgG and IgM antibodies; assay: Flow cytometry of circulating anti-donor antibodies; assay type: in vivo, mouse; settings: presensitized recipients, POD3
Description: The circulating anti-donor specific IgG and IgM antibodies were evaluated in the recipient serum by FACScan flow cytometry (Becton Dickinson, Mountain View, Calif.). Glotz et al., (1993); Tyan et al. (1994). Briefly, C3H mouse splenocytes were isolated and incubated at 37° C. for 30 minutes with serum from naive control and experimental groups. To stain for total IgG, IgG1, IgG2a, IgG2b and IgM, the cells were washed and incubated with FITC-conjugated goat antibody specific for the Fc portion of mouse IgG or with phycoerythrin-conjugated goat antibody specific for the μ-chain of mouse IgM (Jackson ImmunoResearch Laboratories, West Grove, Pa.), or with FITC-conjugated goat anti-mouse IgG1 (CALTAG Laboratories, Burlingame, Calif.), or with FITC-conjugated goat anti-mouse IgG2a (CALTAG), or with FITC-conjugated goat anti-mouse IgG2b (CALTAG). After 1 hour of staining at 4° C., the cells were washed with PBS, resuspended at 5×10^6/mL, and analyzed by flow cytometry for mean channel fluorescence intensity, which represents the antibody-binding reactivity.

[6] = system: C3H heart allografts in BALB/c mice presensitized with C3H skin grafts; assay: Accelerated rejection in presensitized heart transplantation model, allograft survival (Example 4); assay type: in vivo, mouse; settings: BB5.1 40 mg/kg i.p. daily from day -1, cyclosporin A 15 mg/kg s.c. daily, cyclophosphamide 40 mg/kg i.v. days 0 and 1
From the text: In these experiments, the presensitization was brought about by prior transplantation of a skin graft. In general, presensitization can occur not only as a result of having received an earlier allograft, but can also be caused by having received multiple blood transfusions or in women who have been pregnant. Besides such presensitization methods, allografts with an ABO mismatch will be rapidly attacked and rejected because of preformed antibodies to the ABO antigens unless steps are taken to prevent such an attack.
(§3) This model is designed to mimic presensitized transplantation in humans, especially in relation to accelerated humoral rejection. Recipient mice were split into eight groups of six to eight mice each. The treatments were as follow.
Group 3″ (BB5.1 alone)—mice were administered the anti-mouse complement monoclonal antibody BB5.1 at a dose of 40 mg/kg body weight delivered intraperitoneally on a daily basis beginning at day −1 and continuing until the endpoint.
Group 4″ (cyclophosphamide alone)—mice were administered cyclophosphamide intravenously at a dose of 40 mg/kg body weight on each of days 0 and 1.
Group 6″ (BB5.1 plus cyclophosphamide)—mice were administered BB5.1 intraperitoneally at a dose of 40 mg/kg body weight on a daily basis beginning at day −1 and continuing until the endpoint. […]

[7] = system: C3H heart allografts in BALB/c mice presensitized with C3H skin grafts; assay: Histological changes of heart allografts at necropsy (Example 4); assay type: in vivo, mouse; settings: endpoint, 0 normal to 4 marked change
From the text: as §2, §3

[8] = system: cardiac allograft in presensitized rats; settings: cited from earlier work

Compound | heart graft survival (grafts were rejected in) [1] [days] | graft histology (pathological features) [2] | intragraft Mac-1+ cell infiltration (monocytes and macrophages) [3] | C3 immunoperoxidase staining grade ([3]; necropsy POD3) | C5 immunoperoxidase staining grade ([3]; necropsy POD3) | CD4 immunoperoxidase staining grade ([3]; necropsy POD3) | CD8 immunoperoxidase staining grade ([3]; necropsy POD3) | IgG immunoperoxidase staining grade ([3]; necropsy POD3) | IgM immunoperoxidase staining grade ([3]; necropsy POD3) | Mac-1 immunoperoxidase staining grade ([3]; necropsy POD3) | terminal complement activity (lysis of antibody presensitized chicken erythrocytes by recipient sera) [4] | circulating anti-donor IgG levels [5] | Mean survival time [6] [days] | Hemo (hemorrhage) median histological score [7] | Infar (infarction) median histological score [7] | Lymph (lymphocyte infiltration) median histological score [7] | Throm (thrombosis) median histological score [7] | Vasc (vasculitis) median histological score [7] | time before graft rejection ([8]; Pruitt and Bollinger (1991), similar presensitized rat allograft model, sCR1 alone) | average time at which grafts were rejected ([8]; presensitized rats, cyclosporin A 10 mg/kg/day i.m. from two days prior to transplant, sCR1 single i.v. bolus 15 mg/kg before reperfusion) [days]
O=P1(N(CCCl)CCCl)NCCCO1 (centres unmarked) [Cyclophosphamide, cyclophosphamide] | 3.3 ± 0.5 | typical pathological features of ACHR | moderate | 3+ | 3+ | 1+ | 1+ | 3+ | 1+ | 3+ | had no effect | partially down-regulated | 3.3 ± 0.5 | 2.0 | 4.0 | 0.0 | 3.0 | 2.0 |  | 
sCR1: soluble complement receptor 1; binds complements C3b and C4b |  |  |  |  |  |  |  |  |  |  |  |  |  |  |  |  |  |  | increased time before graft rejection | 44
